Assay results taken from patent publication US10336732B2, “1-heterocyclyl isochromanyl compounds and analogs for treating CNS disorders” (Sunovion Pharmaceuticals Inc., priority 2015, dated 2019).

The compounds below were run on mice (assay: Neuropharmacological assay (SmartCube), behavioral signature of compound-treated mice). Conditions: i.p. 15 min before behavioral test, most efficacious dose(s) of 3 doses.
Type: in vivo
Summary of the method: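 Read-out is an automated video-based behavioral signature, scored as per-class probabilities (e.g., anxiolytic, antidepressant) against reference compounds. Dosing was i.p. at three doses, 15 min pre-test, in NMP, polyethylene glycol and propylene glycol. Values shown are from the most efficacious dose(s).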
`Fc1ccc2c(c1)[C@@H]([C@@H]1CCN1)OCC2` [Compound I-85, (S)-2-((S)-7-fluoroisochroman-1-yl)azetidine] was tested, and the “AD: ADHD (probability that behavioral signature matches class)” value (shortened to “AD: ADHD”) was “+ (LOQ ≤ + <5%)”, the “AG: analgesic (probability that behavioral signature matches class)” value (shortened to “AG: analgesic”) was “+ (LOQ ≤ + <5%)” and the “AX: anxiolytic (probability that behavioral signature matches class)” value (“AX: anxiolytic” below) was “++ (5% ≤ ++ <25%)”. The “CE: cognitive enhancer (probability that behavioral signature matches class)” value (shortened to “CE: cognitive enhancer”) was “++ (5% ≤ ++ <25%)”, the “DP: anti-depressant (probability that behavioral signature matches class)” value (“DP: anti-depressant” for short) was “++ (5% ≤ ++ <25%)” and the “HA: hallucinogen (probability that behavioral signature matches class)” value (“HA: hallucinogen” for short) was “+ (LOQ ≤ + <5%)”. For the same compound, the “MS: mood stabilizer (probability that behavioral signature matches class)” value (from here on “MS: mood stabilizer”) was “+ (LOQ ≤ + <5%)”, the “PS: anti-psychotic (probability that behavioral signature matches class)” value (“PS: anti-psychotic” for short) was “+++ (25% ≤ +++ <50%)” and the “SD: sedative hypnotic (probability that behavioral signature matches class)” value (“SD: sedative hypnotic” below) was “++ (5% ≤ ++ <25%)”. The “UN: uncharacterized CNS activity (probability that behavioral signature matches class)” value (from here on “UN: uncharacterized CNS activity”) was “++ (5% ≤ ++ <25%)” and the “XG: anxiogenic (probability that behavioral signature matches class)” value (from here on “XG: anxiogenic”) was “+ (LOQ ≤ + <5%)”.
`CC1(C)Cc2ccccc2[C@@H]([C@@H]2CCCN2)O1` [Compound I-65, (S)-2-((S)-3,3-dimethylisochroman-1-yl)pyrrolidine] was tested, and the “AD: ADHD” value was “+ (LOQ ≤ + <5%)”, the “AG: analgesic” value was “+++ (25% ≤ +++ <50%)” and the “AX: anxiolytic” value was “++ (5% ≤ ++ <25%)”. For the same compound, the “CE: cognitive enhancer” value was “++ (5% ≤ ++ <25%)”, the “DP: anti-depressant” value was “++ (5% ≤ ++ <25%)” and the “HA: hallucinogen” value was “+ (LOQ ≤ + <5%)”. For the same compound, the “MS: mood stabilizer” value was “+ (LOQ ≤ + <5%)”, the “PS: anti-psychotic” value was “++ (5% ≤ ++ <25%)” and the “SD: sedative hypnotic” value was “++ (5% ≤ ++ <25%)”. For the same compound, the “UN: uncharacterized CNS activity” value was “+ (LOQ ≤ + <5%)” and the “XG: anxiogenic” value was “+ (LOQ ≤ + <5%)”.
For `Clc1ccc2c(c1)CCO[C@H]2[C@H]1CCCN1` [Compound I-35, (R)-2-((R)-6-chloroisochroman-1-yl)pyrrolidine], the “AD: ADHD” value was “+ (LOQ ≤ + <5%)”, the “AG: analgesic” value was “+ (LOQ ≤ + <5%)” and the “AX: anxiolytic” value was “++ (5% ≤ ++ <25%)”. The “CE: cognitive enhancer” value was “++ (5% ≤ ++ <25%)”, the “DP: anti-depressant” value was “++ (5% ≤ ++ <25%)” and the “HA: hallucinogen” value was “+ (LOQ ≤ + <5%)”. For the same compound, the “MS: mood stabilizer” value was “+ (LOQ ≤ + <5%)”, the “PS: anti-psychotic” value was “+++ (25% ≤ +++ <50%)” and the “SD: sedative hypnotic” value was “++ (5% ≤ ++ <25%)”. The “UN: uncharacterized CNS activity” value was “++ (5% ≤ ++ <25%)” and the “XG: anxiogenic” value was “+ (LOQ ≤ + <5%)”.
In the case of `c1cc2c(c3c1CCO[C@@H]3[C@@H]1CCN1)OCO2` [Compound I-143, (S)-2-((S)-7,9-dihydro-6H-[1,3]dioxolo[4,5-h]isochromen-9-yl)azetidine], the “AD: ADHD” value is reported as “+ (LOQ ≤ + <5%)”, the “AG: analgesic” value is reported as “++ (5% ≤ ++ <25%)” and the “AX: anxiolytic” value is reported as “++ (5% ≤ ++ <25%)”. The “CE: cognitive enhancer” value was “+ (LOQ ≤ + <5%)”, the “DP: anti-depressant” value was “++ (5% ≤ ++ <25%)” and the “HA: hallucinogen” value was “+ (LOQ ≤ + <5%)”. The “MS: mood stabilizer” value was “+ (LOQ ≤ + <5%)”, the “PS: anti-psychotic” value was “++ (5% ≤ ++ <25%)” and the “SD: sedative hypnotic” value was “+ (LOQ ≤ + <5%)”. The “UN: uncharacterized CNS activity” value was “+++ (25% ≤ +++ <50%)” and the “XG: anxiogenic” value was “+ (LOQ ≤ + <5%)”.
In the case of `Fc1ccc2c(c1)CO[C@H]2[C@H]1CCCN1` [Compound I-121, (R)-2-((R)-5-fluoro-1,3-dihydroisobenzofuran-1-yl)pyrrolidine], the “AD: ADHD” value is reported as “+ (LOQ ≤ + <5%)”, the “AG: analgesic” value is reported as “+++ (25% ≤ +++ <50%)” and the “AX: anxiolytic” value is reported as “+++ (25% ≤ +++ <50%)”. The “CE: cognitive enhancer” value was “++ (5% ≤ ++ <25%)”, the “DP: anti-depressant” value was “++ (5% ≤ ++ <25%)” and the “HA: hallucinogen” value was “+ (LOQ ≤ + <5%)”. For the same compound, the “MS: mood stabilizer” value was “+ (LOQ ≤ + <5%)”, the “PS: anti-psychotic” value was “++ (5% ≤ ++ <25%)” and the “SD: sedative hypnotic” value was “++ (5% ≤ ++ <25%)”. For the same compound, the “UN: uncharacterized CNS activity” value was “++ (5% ≤ ++ <25%)” and the “XG: anxiogenic” value was “+ (LOQ ≤ + <5%)”.
With `CC1(C)CN[C@H]([C@H]2OCCc3ccccc32)C1` [Compound I-60, (S)-2-((S)-isochroman-1-yl)-4,4-dimethylpyrrolidine] the “AD: ADHD” value was “+ (LOQ ≤ + <5%)”, the “AG: analgesic” value was “++ (5% ≤ ++ <25%)” and the “AX: anxiolytic” value was “++ (5% ≤ ++ <25%)”. For the same compound, the “CE: cognitive enhancer” value was “++ (5% ≤ ++ <25%)”, the “DP: anti-depressant” value was “++ (5% ≤ ++ <25%)” and the “HA: hallucinogen” value was “+ (LOQ ≤ + <5%)”. The “MS: mood stabilizer” value was “+ (LOQ ≤ + <5%)”, the “PS: anti-psychotic” value was “+++ (25% ≤ +++ <50%)” and the “SD: sedative hypnotic” value was “++ (5% ≤ ++ <25%)”. The “UN: uncharacterized CNS activity” value was “++ (5% ≤ ++ <25%)” and the “XG: anxiogenic” value was “+ (LOQ ≤ + <5%)”.
In the case of `c1ccc2c(c1)CCO[C@H]2[C@@H]1CCN1` [Compound I-80, (S)-2-((R)-iso-chroman-1-yl)azetidine], the “AD: ADHD” value is reported as “+ (LOQ ≤ + <5%)”, the “AG: analgesic” value is reported as “++ (5% ≤ ++ <25%)” and the “AX: anxiolytic” value is reported as “++ (5% ≤ ++ <25%)”. For the same compound, the “CE: cognitive enhancer” value was “++ (5% ≤ ++ <25%)”, the “DP: anti-depressant” value was “+++ (25% ≤ +++ <50%)” and the “HA: hallucinogen” value was “+ (LOQ ≤ + <5%)”. For the same compound, the “MS: mood stabilizer” value was “++ (5% ≤ ++ <25%)”, the “PS: anti-psychotic” value was “++ (5% ≤ ++ <25%)” and the “SD: sedative hypnotic” value was “+ (LOQ ≤ + <5%)”. For the same compound, the “UN: uncharacterized CNS activity” value was “+++ (25% ≤ +++ <50%)” and the “XG: anxiogenic” value was “+ (LOQ ≤ + <5%)”.
With `Cc1cccc2c1[C@H]([C@H]1CCCN1)OCCC2` [Compound I-103, (R)-2-((R)-9-methyl-1,3,4,5-tetrahydrobenzo[c]oxepin-1-yl)pyrrolidine] the “AD: ADHD” value was “+ (LOQ ≤ + <5%)”, the “AG: analgesic” value was “++ (5% ≤ ++ <25%)” and the “AX: anxiolytic” value was “++ (5% ≤ ++ <25%)”. For the same compound, the “CE: cognitive enhancer” value was “+ (LOQ ≤ + <5%)”, the “DP: anti-depressant” value was “++ (5% ≤ ++ <25%)” and the “HA: hallucinogen” value was “+ (LOQ ≤ + <5%)”. For the same compound, the “MS: mood stabilizer” value was “+ (LOQ ≤ + <5%)”, the “PS: anti-psychotic” value was “+ (LOQ ≤ + <5%)” and the “SD: sedative hypnotic” value was “++ (5% ≤ ++ <25%)”. For the same compound, the “UN: uncharacterized CNS activity” value was “+++ (25% ≤ +++ <50%)” and the “XG: anxiogenic” value was “+ (LOQ ≤ + <5%)”.
